Assay type in all cases: in vivo
Experiment [1] deals with mice. As to the kind of experiment: Narcosis potentiating activity on mice (sodium hexobarbital narcosis). The settings on record: for Narcosis potentiating activity on mice, Relative activity: relative to Grandaxin (1.0); for change in vivo at 12.5 mg/kg / change in vivo at 25 mg/kg / change in vivo at 50 mg/kg / change in vivo at 100 mg/kg: Mus musculus, po, 30 minutes before 50 mg/kg sodium hexobarbital i.v., prolongation vs control, read-out: Narcosis potentiating activity on mice, Increase, %. How it is done:
When studying the narcosis potentiating effect, the benzodiazepine compounds were administered to mice in oral dosages of 12.5, 25, 50 or 100 mg/kg, and 30 minutes later 50 mg/kg of sodium hexobarbital were injected intravenously into the animals. The percentage prolongation of the narcosis period, compared to the value observed in the control group treated with sodium hexobarbital alone, was calculated. In these tests Grandaxin was applied again as reference substance.

Experiment [2] concerns mice. As to the kind of experiment: Fighting behaviour test on mice (method of Tedeschi et al.). The following applies: for ED50: Mus musculus, po, mice; for "Fighting behaviour" test on mice, relative activity: relative to Grandaxin (1.0), from ED50 p.o. The procedure: (§1) The tests were performed on mice. In the examination of the general behaviour the animals were treated intraperitoneally with 100 mg/kg or orally with 200 mg/kg of the compound in question. The fighting behaviour test was performed according to the method of Tedeschi et al. (J. Pharm. Exp. Ther. 25, 28 /1959/). The observations concerning the general behaviour of the animals and the ED50 values obtained in the fighting behaviour test are summarized in Table 1. In these tests 1-(3,4-dimethoxyphenyl)-4-methyl-5-ethyl-7,8-dimethoxy-5H-2,3-benzodiazepine (Grandaxin) was applied as reference substance.

For experiment [3], the system named is mice. As to the kind of experiment: General behaviour of mice. The settings on record: 100 mg/kg i.p. and, resp., 200 mg/kg p.o., SMA = spontaneous motor activity. How it is done: These compounds decrease the spontaneous motor activity and potentiate the effect of narcotics.
as §1

Entries after “also recorded” stand apart in the source; their conditions may differ.

`CCC1C(C)=NN=C(c2ccccc2F)c2cc(OC)c(OC)cc21` (stereo not shown) [Example 14, 1-(2-fluorophenyl)-4-methyl-5-ethyl-7,8 dimethoxy-5H-2,3-benzodiazepine]: in the experiment on mice [1] (12.5 mg/kg p.o.), the “Narcosis potentiating activity on mice, Relative activity” value came out at 8.65 and the change in vivo at 12.5 mg/kg is 147%. In addition, in the experiment with mice [1] (25 mg/kg p.o.), the “Narcosis potentiating activity on mice, Relative activity” value is given as 3.16 and the change in vivo at 25 mg/kg is 256%. In addition, in the experiment on mice [1] (50 mg/kg p.o.), the “Narcosis potentiating activity on mice, Relative activity” value was 6.57 and the change in vivo at 50 mg/kg amounted to 750%.

Regarding `CCC1C(C)=NN=C(c2cccc(F)c2)c2cc(OC)c(OC)cc21` (stereo not shown) [Example 42, 1-(3-Fluorphenyl)-4-methyl-5-ethyl-7,8-dimethoxy-5H-2,3-benzodiazepine], in the experiment with mice [1] (25 mg/kg p.o.), the “Narcosis potentiating activity on mice, Relative activity” value is on record as 2.52 and the change in vivo at 25 mg/kg is 204%. In the experiment with mice [1] (50 mg/kg p.o.), the “Narcosis potentiating activity on mice, Relative activity” value is given as 3.04 and the change in vivo at 50 mg/kg was found to be 347%. In the experiment with mice [2], the median effective dose (ED50) amounted to 40 mg/kg and the “"Fighting behaviour" test on mice, relative activity” value was found to be 1.6. Also, the General behaviour result in the experiment with mice [3] is “Decrease of SMA”.

Regarding `CCC1C(C)=NN=C(c2ccccc2Cl)c2cc(OC)c(OC)cc21` (stereo not shown) [Example 18, 1-(2-chlorophenyl)-4-methyl-5-ethyl-7,8-dimethoxy-5H-2,3-benzodiazepine], in the experiment on mice [1] (12.5 mg/kg p.o.), the “Narcosis potentiating activity on mice, Relative activity” value was 9.41 and the change in vivo at 12.5 mg/kg came to 160%. In the experiment on mice [1] (25 mg/kg p.o.), the “Narcosis potentiating activity on mice, Relative activity” value amounted to 4.65 and the change in vivo at 25 mg/kg worked out at 377%. For the same molecule, the “Narcosis potentiating activity on mice, Relative activity” value in the experiment with mice [1] (50 mg/kg p.o.) was found to be 13.33. For the same molecule, in the experiment on mice [2], the ED50 turned out to be 40 mg/kg and the “"Fighting behaviour" test on mice, relative activity” value came to 1.6. In the experiment with mice [3], the General behaviour entry is reported as “Strong decrease of SMA”.

Consider `CCCOc1cc2c(cc1OC)C(c1ccc(OC)c(OC)c1)=NN=C(C)C2CC` (stereo not shown) [Example 37, 1-(3,4-dimethoxyphenyl)-4-methyl-5-ethyl-7-n-propoxy-8-methoxy-5H-2,3-benzodiazepine], for which, in the experiment on mice [2], the 50% effective dose (ED50) came to 40 mg/kg and the “"Fighting behaviour" test on mice, relative activity” value worked out at 1.6. Also, in the experiment with mice [3], the General behaviour result is “Strong decrease of SMA”.

`COc1cc2c(cc1OC)C(C)C(C)=NN=C2c1cccc(Cl)c1` (stereo not shown) [Example 40, 1-(3-Chlorophenyl)-4,5-dimethyl-7,8-dimethoxy-5H-2,3-benzodiazepine]: in the experiment with mice [1] (50 mg/kg p.o.), the “Narcosis potentiating activity on mice, Relative activity” value amounted to 0.79 and the change in vivo at 50 mg/kg is 90%. In addition, in the experiment with mice [1] (100 mg/kg p.o.), the “Narcosis potentiating activity on mice, Relative activity” value is reported as 0.91 and the change in vivo at 100 mg/kg worked out at 218%. Moreover, in the experiment on mice [2], it took a dose of 50 mg/kg to reach the 50% effect level (ED50) and the “"Fighting behaviour" test on mice, relative activity” value came out at 1.3. In addition, the General behaviour result in the experiment with mice [3] is “Decrease of SMA”.

As to `COc1cc2c(cc1OC)C(c1ccccc1OC)=NN=C(C)C2` [Example 43, 1-(2-Methoxyphenyl)-4-methyl-7,8-dimethoxy-5H-2,3-benzodiazepine], in the experiment on mice [1] (25 mg/kg p.o.), the “Narcosis potentiating activity on mice, Relative activity” value is reported as 2.89 and the change in vivo at 25 mg/kg is 234%. Besides, in the experiment with mice [2], the 50% effect level (ED50) was put at a dose of 36 mg/kg and the “"Fighting behaviour" test on mice, relative activity” value is 1.8. Also, the General behaviour entry with mice [3] is “Decrease of SMA”.

`COc1cc2c(cc1OC)C(c1cccc(F)c1)=NN=C(C)C2` [Example 41, 1-(3-Fluorphenyl)-4-methyl-7,8-dimethoxy-5H-2,3-benzodiazepine]: in the experiment with mice [1] (50 mg/kg p.o.), the “Narcosis potentiating activity on mice, Relative activity” value is listed as 1.80 and the change in vivo at 50 mg/kg amounted to 205%. Further, in the experiment with mice [1] (100 mg/kg p.o.), the “Narcosis potentiating activity on mice, Relative activity” value turned out to be 1.60 and the change in vivo at 100 mg/kg amounted to 383%. Moreover, in the experiment with mice [2], the ED50 came to 37 mg/kg and the “"Fighting behaviour" test on mice, relative activity” value came to 1.7. The General behaviour entry in the experiment on mice [3] was “Decrease of SMA”.

Consider `CCC1C(C)=NN=C(c2ccccc2)c2cc(OC)c(OC)cc21` (stereo not shown) [Example 22, 1-phenyl-4-methyl-5-ethyl-7,8-dimethoxy-5H-2,3-benzodiazepine], for which, in the experiment on mice [1] (25 mg/kg p.o.), the “Narcosis potentiating activity on mice, Relative activity” value is reported as 2.23 and the change in vivo at 25 mg/kg was found to be 181%. Also, in the experiment with mice [1] (50 mg/kg p.o.), the “Narcosis potentiating activity on mice, Relative activity” value came to 3.20 and the change in vivo at 50 mg/kg was determined as 364%. Further, in the experiment on mice [2], the 50% effect level (ED50) was put at a dose of 35 mg/kg and the “"Fighting behaviour" test on mice, relative activity” value was found to be 1.8. Further, the General behaviour entry with mice [3] is listed as “Decrease of SMA; also recorded: catalepsy”.

Regarding `COc1cc2c(cc1OC)C(c1cccc(C(F)(F)F)c1)=NN=C(C)C2` [Example 44, 1-(3-Trifluoromethyl-phenyl)-4-methyl-7,8-dimethoxy-5H-2,3-benzodiazepine], in the experiment on mice [1] (12.5 mg/kg p.o.), the “Narcosis potentiating activity on mice, Relative activity” value turned out to be 8.82 and the change in vivo at 12.5 mg/kg was found to be 150%. For the same molecule, in the experiment on mice [1] (25 mg/kg p.o.), the “Narcosis potentiating activity on mice, Relative activity” value stood at 3.63 and the change in vivo at 25 mg/kg came out at 294%. In the experiment on mice [2], the ED50 is 22 mg/kg and the “"Fighting behaviour" test on mice, relative activity” value is 2.9. Moreover, the General behaviour result in the experiment with mice [3] is “Strong decrease of SMA”.

Turning to `CCC1C(C)=NN=C(c2ccc(OC)cc2)c2cc(OC)c(OC)cc21` (stereo not shown) [Example 4, 1-(4-methoxyphenyl)-4-methyl-5-ethyl-7,8-dimethoxy-5H-2,3-benzodiazepine], in the experiment on mice [1] (50 mg/kg p.o.), the “Narcosis potentiating activity on mice, Relative activity” value was 2.17 and the change in vivo at 50 mg/kg is 248%. Also, in the experiment on mice [2], the ED50 turned out to be 40 mg/kg and the “"Fighting behaviour" test on mice, relative activity” value was 1.6. Moreover, the General behaviour result in the experiment on mice [3] is given as “Decrease of SMA”.

As to `CCOc1cc2c(cc1OC)C(c1ccc(OC)c(OC)c1)=NN=C(C)C2CC` (stereo not shown) [Example 36, 1-(3,4-dimethoxyphenyl)-4-methyl-5-ethyl-7-ethoxy-8-methoxy-5H-2,3-benzodiazepine], in the experiment on mice [1] (25 mg/kg p.o.), the “Narcosis potentiating activity on mice, Relative activity” value is given as 1.62 and the change in vivo at 25 mg/kg was determined as 132%. Besides, in the experiment on mice [1] (50 mg/kg p.o.), the “Narcosis potentiating activity on mice, Relative activity” value is reported as 2.44 and the change in vivo at 50 mg/kg stood at 278%.

`CCC1C(C)=NN=C(c2ccc(O)c(OC)c2)c2cc(OC)c(OC)cc21` (stereo not shown) [Example 24, 1-(3-methoxy-4-hydroxyphenyl)-4-methyl-5-ethyl-7,8-dimethoxy-5H-2,3-benzodiazepine]: in the experiment on mice [1] (50 mg/kg p.o.), the “Narcosis potentiating activity on mice, Relative activity” value is 1.16 and the change in vivo at 50 mg/kg was found to be 132%.

For `CCC(C)Oc1cc2c(cc1OC)C(c1ccc(OC)c(OC)c1)=NN=C(C)C2CC` (stereo not shown) [Example 35, 1-(3,4-dimethoxyphenyl)-4-methyl-5-ethyl-7-sec.butoxy-8-methoxy-5H-2,3-benzodiazepine], in the experiment on mice [1] (25 mg/kg p.o.), the “Narcosis potentiating activity on mice, Relative activity” value was found to be 1.11 and the change in vivo at 25 mg/kg came to 90%. Moreover, in the experiment with mice [1] (50 mg/kg p.o.), the “Narcosis potentiating activity on mice, Relative activity” value was found to be 1.52 and the change in vivo at 50 mg/kg was 173%. Moreover, in the experiment with mice [1] (100 mg/kg p.o.), the “Narcosis potentiating activity on mice, Relative activity” value was determined as 3.26 and the change in vivo at 100 mg/kg was 780%. For the same molecule, in the experiment on mice [2], the 50% effect level (ED50) was put at a dose of 60 mg/kg and the “"Fighting behaviour" test on mice, relative activity” value is recorded as 1.1. In addition, in the experiment on mice [3], the General behaviour entry is “Decrease of SMA”.

Regarding `CCC1=NN=C(c2ccc(OC)c(OC)c2)c2cc(OC)c(OC)cc2C1CC` (stereo not shown) [Example 11, 1-(3,4-dimethoxyphenyl)-4,5-diethyl-7,8-dimethoxy-5H-2,3-benzodiazepine], in the experiment on mice [1] (25 mg/kg p.o.), the “Narcosis potentiating activity on mice, Relative activity” value stood at 1.65 and the change in vivo at 25 mg/kg stood at 134%. Also, in the experiment on mice [1] (50 mg/kg p.o.), the “Narcosis potentiating activity on mice, Relative activity” value is on record as 1.43 and the change in vivo at 50 mg/kg was 163%.

Take `CCC1C(C)=NN=C(c2ccc(OC)c(OC)c2)c2cc(OC)c(OC(C)C)cc21` (stereo not shown) [Example 33, 1-(3,4-dimethoxyphenyl)-4-methyl-5-ethyl-7-isopropoxy-8-methoxy-5H-2,3-benzodiazepine]: in the experiment on mice [1] (25 mg/kg p.o.), the “Narcosis potentiating activity on mice, Relative activity” value is given as 3.01 and the change in vivo at 25 mg/kg is 244%. Also, in the experiment on mice [1] (50 mg/kg p.o.), the “Narcosis potentiating activity on mice, Relative activity” value worked out at 3.90 and the change in vivo at 50 mg/kg worked out at 445%.

Consider `CCCC1C(C)=NN=C(c2ccc(OC)c(OC)c2)c2cc(OC)c(OC)cc21.O` (stereo not shown) [Example 10, 1-(3,4-dimethoxyphenyl)-4-methyl-5-n-propyl-7,8-dimethoxy-5H-2,3-benzodiazepine hydrate], for which, in the experiment with mice [1] (25 mg/kg p.o.), the “Narcosis potentiating activity on mice, Relative activity” value worked out at 1.23 and the change in vivo at 25 mg/kg came to 100%. For the same molecule, in the experiment on mice [1] (50 mg/kg p.o.), the “Narcosis potentiating activity on mice, Relative activity” value amounted to 1.62 and the change in vivo at 50 mg/kg worked out at 185%.

Consider `CCC1C(C)=NN=C(c2ccccc2C)c2cc(OC)c(OC)cc21` (stereo not shown) [Example 7, 1-(2-tolyl)-4-methyl-5-ethyl-7,8-dimethoxy-5H-2,3-benzodiazepine], for which, in the experiment on mice [1] (25 mg/kg p.o.), the “Narcosis potentiating activity on mice, Relative activity” value is 3.71 and the change in vivo at 25 mg/kg was 301%.

A word on the ED50: it is the midpoint of the dose-response relation. High values mean a need for a large dose, low ones an effect at a small dose.

For the origin of these results see patent publication US4322346A, “5H-2,3-Benzodiazepine derivatives” (priority 1978, dated 1982).
